Results taken from paper PMC4278837, “A Cyclic Peptidic Serine Protease Inhibitor: Increasing Affinity by Increasing Peptide Flexibility” (PLoS ONE, 2014).
Square brackets hold non-standard residues; d marks the D form. Peptide text beside a SMILES is read from it. * marks the point of attachment. pNA = O=[N+]([O-])c1ccc(N*)cc1; pGlu = O=C1CC[C@@H](C(=O)O)N1

Assays:
Conditions in all cases: 37°C, HBS with 0.1% BSA
muPA K41A = target: T1, muPA K41A (Mus musculus, UniProt P06869, K210A); assay: KM for S-2444 hydrolysis by muPA K41A; assay type: biochemical, murine
T1 construct: To ensure that the uPAs purified from the conditioned media were completely in the two-chain form, they were treated with plasmin; hexa-His (C); made in house; host or cells: HEK293 6E suspension cells
Experimental: (§1) Determination of K M values
(§2) To determine the K M values for hydrolysis of S-2444 (pyro-Glu-Gly-Arg-p-nitroanilide) by the different uPA variants used in the present study, a 200 µL 2-fold dilution series of the substrate (4 - 0 mM for huPA variants, 24 – 0 mM for muPA variants) in a buffer of 10 mM HEPES, pH 7.4, 140 mM NaCl (HEPES-buffered saline, HBS), with 0.1% bovine serum albumin (BSA), was incubated 2 min at 37°C, prior to the addition of a fixed concentration of each protease (approximaterly 2 nM final concentration). The initial reaction velocities (V i), monitored as the changes in absorbance at 405 nm, were plotted against the initial substrate concentration ([S]) and non-linear regression analysis was used to determine the K M according to equation 1: […]
(§3) The K M values for hydrolysis of S-2444 by the uPA variants employed in the present study are listed in S2 Table.

muPA Y99A = target: T2, muPA Y99A (Mus musculus, UniProt P06869, Y274A); assay: KM for S-2444 hydrolysis by muPA Y99A; assay type: biochemical, murine
T2 construct: To ensure that the uPAs purified from the conditioned media were completely in the two-chain form, they were treated with plasmin; hexa-His (C); made in house; host or cells: HEK293 6E suspension cells
Experimental: as §1, §2, §3

muPA K143A = target: T3, muPA K143A (Mus musculus, UniProt P06869, K322A); assay: KM for S-2444 hydrolysis by muPA K143A; assay type: biochemical, murine
T3 construct: To ensure that the uPAs purified from the conditioned media were completely in the two-chain form, they were treated with plasmin; hexa-His (C); made in house; host or cells: HEK293 6E suspension cells
Experimental: as §1, §2, §3

huPA-H99Y Q192A = huPA-H99Y Q192A (Homo sapiens, UniProt P00749, H272Y/Q373A); assay: KM for S-2444 hydrolysis by huPA-H99Y Q192A; assay type: biochemical; set-up: hexa-His (C); made in house; host or cells: HEK293 6E suspension cells
Experimental: as §1, §2, §3

muPA V213T = target: T4, muPA V213T (Mus musculus, UniProt P06869, V396T); assay: KM for S-2444 hydrolysis by muPA V213T; assay type: biochemical, murine
T4 construct: To ensure that the uPAs purified from the conditioned media were completely in the two-chain form, they were treated with plasmin; hexa-His (C); made in house; host or cells: HEK293 6E suspension cells
Experimental: as §1, §2, §3

huPA-H99Y R35A = target: T5, huPA-H99Y R35A (Homo sapiens, UniProt P00749, H272Y/R198A); assay: KM for S-2444 hydrolysis by huPA-H99Y R35A; assay type: biochemical
T5 construct: To ensure that the uPAs purified from the conditioned media were completely in the two-chain form, they were treated with plasmin; hexa-His (C); made in house; host or cells: HEK293 6E suspension cells
Experimental: as §1, §2, §3

huPA-H99Y K143A = target: T6, huPA-H99Y K143A (Homo sapiens, UniProt P00749, H272Y/K320A); assay: KM for S-2444 hydrolysis by huPA-H99Y K143A; assay type: biochemical
T6 construct: To ensure that the uPAs purified from the conditioned media were completely in the two-chain form, they were treated with plasmin; hexa-His (C); made in house; host or cells: HEK293 6E suspension cells
Experimental: as §1, §2, §3

muPA wt = target: T7, muPA wt (Mus musculus, UniProt P06869); assay: KM for S-2444 hydrolysis by muPA wt; assay type: biochemical, murine
T7 construct: To ensure that the uPAs purified from the conditioned media were completely in the two-chain form, they were treated with plasmin; hexa-His (C); made in house; host or cells: HEK293 6E suspension cells
Experimental: as §1, §2, §3

huPA-H99Y = target: T8, huPA-H99Y (Homo sapiens, UniProt P00749, H272Y); assay: KM for S-2444 hydrolysis by huPA-H99Y; assay type: biochemical
T8 construct: To ensure that the uPAs purified from the conditioned media were completely in the two-chain form, they were treated with plasmin; hexa-His (C); made in house; host or cells: HEK293 6E suspension cells
Experimental: as §1, §2, §3

huPA-H99Y V41A = target: T9, huPA-H99Y V41A (Homo sapiens, UniProt P00749, H272Y/V208A); assay: KM for S-2444 hydrolysis by huPA-H99Y V41A; assay type: biochemical
T9 construct: To ensure that the uPAs purified from the conditioned media were completely in the two-chain form, they were treated with plasmin; hexa-His (C); made in house; host or cells: HEK293 6E suspension cells
Experimental: as §1, §2, §3

huPA wt = target: T10, huPA wt (Homo sapiens, UniProt P00749); assay: KM for S-2444 hydrolysis by huPA wt; assay type: biochemical
T10 construct: To ensure that the uPAs purified from the conditioned media were completely in the two-chain form, they were treated with plasmin; hexa-His (C); made in house; host or cells: HEK293 6E suspension cells
Experimental: as §1, §2, §3

muPA S190A = target: T11, muPA S190A (Mus musculus, UniProt P06869, S373A); assay: KM for S-2444 hydrolysis by muPA S190A; assay type: biochemical, murine
T11 construct: To ensure that the uPAs purified from the conditioned media were completely in the two-chain form, they were treated with plasmin; hexa-His (C); made in house; host or cells: HEK293 6E suspension cells
Experimental: as §1, §2, §3

T3 sequence (P06869 180-433 K322A): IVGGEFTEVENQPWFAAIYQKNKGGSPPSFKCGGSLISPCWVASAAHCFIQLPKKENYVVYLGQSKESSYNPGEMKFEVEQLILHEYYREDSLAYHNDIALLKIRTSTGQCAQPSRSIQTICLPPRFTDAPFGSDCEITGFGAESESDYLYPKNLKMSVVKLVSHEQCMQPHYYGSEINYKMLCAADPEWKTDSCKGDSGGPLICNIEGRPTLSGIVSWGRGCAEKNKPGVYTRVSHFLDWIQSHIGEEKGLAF
T3 sequence (P06869 21-178 partner limits assumed): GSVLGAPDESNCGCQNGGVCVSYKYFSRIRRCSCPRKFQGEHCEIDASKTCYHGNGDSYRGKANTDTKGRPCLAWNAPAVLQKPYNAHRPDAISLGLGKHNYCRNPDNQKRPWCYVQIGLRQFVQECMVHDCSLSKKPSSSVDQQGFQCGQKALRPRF
T11 sequence (P06869 180-433 S373A): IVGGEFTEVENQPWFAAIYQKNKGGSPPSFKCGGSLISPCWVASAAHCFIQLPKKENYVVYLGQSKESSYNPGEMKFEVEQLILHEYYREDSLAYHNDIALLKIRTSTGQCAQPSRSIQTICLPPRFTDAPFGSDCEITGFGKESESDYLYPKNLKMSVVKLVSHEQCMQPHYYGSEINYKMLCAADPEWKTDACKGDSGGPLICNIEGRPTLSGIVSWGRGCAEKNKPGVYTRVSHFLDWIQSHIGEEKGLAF
T11 sequence (P06869 21-178 partner limits assumed): as the sequence (P06869 21-178 partner limits assumed) above
T1 sequence (P06869 180-433 K210A): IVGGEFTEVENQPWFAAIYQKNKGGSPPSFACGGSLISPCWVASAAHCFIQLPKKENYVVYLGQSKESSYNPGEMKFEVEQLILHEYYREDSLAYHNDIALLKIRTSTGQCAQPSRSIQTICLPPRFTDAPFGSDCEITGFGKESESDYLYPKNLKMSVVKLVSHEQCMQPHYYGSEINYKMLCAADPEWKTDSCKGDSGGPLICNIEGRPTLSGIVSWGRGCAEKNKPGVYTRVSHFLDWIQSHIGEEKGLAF
T1 sequence (P06869 21-178 partner limits assumed): as the sequence (P06869 21-178 partner limits assumed) above
T4 sequence (P06869 180-433 V396T): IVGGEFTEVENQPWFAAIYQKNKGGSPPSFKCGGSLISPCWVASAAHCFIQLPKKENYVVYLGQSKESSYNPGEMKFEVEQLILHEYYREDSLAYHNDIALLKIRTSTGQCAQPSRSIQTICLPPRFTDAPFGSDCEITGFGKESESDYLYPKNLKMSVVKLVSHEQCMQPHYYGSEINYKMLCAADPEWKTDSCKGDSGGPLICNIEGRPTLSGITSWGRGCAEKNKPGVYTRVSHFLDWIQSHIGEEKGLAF
T4 sequence (P06869 21-178 partner limits assumed): as the sequence (P06869 21-178 partner limits assumed) above
T7 sequence (P06869 180-433 limits assumed): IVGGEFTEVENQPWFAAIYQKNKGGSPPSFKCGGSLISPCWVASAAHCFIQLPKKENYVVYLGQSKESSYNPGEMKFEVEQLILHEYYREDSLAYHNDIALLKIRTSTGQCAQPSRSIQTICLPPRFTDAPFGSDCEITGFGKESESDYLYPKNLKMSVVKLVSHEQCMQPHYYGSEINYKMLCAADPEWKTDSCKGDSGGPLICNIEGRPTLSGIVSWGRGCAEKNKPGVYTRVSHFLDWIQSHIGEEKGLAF
T7 sequence (P06869 21-178 partner limits assumed): as the sequence (P06869 21-178 partner limits assumed) above
T2 sequence (P06869 180-433 Y274A): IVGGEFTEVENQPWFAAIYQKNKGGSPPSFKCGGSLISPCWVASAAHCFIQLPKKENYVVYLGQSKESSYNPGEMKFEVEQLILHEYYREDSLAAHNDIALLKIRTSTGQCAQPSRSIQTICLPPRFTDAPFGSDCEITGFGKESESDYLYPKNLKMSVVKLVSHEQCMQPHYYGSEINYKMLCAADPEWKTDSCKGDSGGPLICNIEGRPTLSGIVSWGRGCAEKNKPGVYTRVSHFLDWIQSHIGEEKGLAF
T2 sequence (P06869 21-178 partner limits assumed): as the sequence (P06869 21-178 partner limits assumed) above

NC(N)=NCCC[C@H](NC(=O)CNC(=O)[C@@H]1CCC(=O)N1)C(=O)Nc1ccc([N+](=O)[O-])cc1 [S-2444, pyro-Glu-Gly-Arg-p-nitroanilide] ([pGlu]-Gly-Arg-pNA)
Km (muPA K41A): 2500 ± 200 µM
Km (muPA Y99A): 3600 ± 300 µM
Km (muPA K143A): 1000 ± 400 µM
Km (huPA-H99Y Q192A): 904 ± 178 µM
Km (muPA V213T): 868 ± 350 µM
Km (huPA-H99Y R35A): 517 ± 156 µM
Km (huPA-H99Y K143A): 500 ± 41 µM
Km (muPA wt): 2400 ± 200 µM
Km (huPA-H99Y): 610 ± 110 µM
Km (huPA-H99Y V41A): 742 ± 73 µM
Km (huPA wt): 87 ± 0.3 µM
Km (muPA S190A): 10800 ± 1000 µM
